{
  "source": "patent US11839636B1",
  "about": "“Pharmaceutical composition based on plant raw materials: #2.1” (priority 2022, dated 2023)",
  "tested_on": "malondialdehyde (MDA)",
  "assay": "In vitro study of antioxidant effect (FeSO4-activated malondialdehyde in blood serum)",
  "assay_type": "biochemical",
  "details": "0.1 ml sample, 0.3 ml blood serum, FeSO4, 37° C. 15 min, MDA at 535 nm",
  "description": "Three samples were examined to evaluate antioxidant effectiveness. […] Method: evaluation was done by determining the intermediate product of the lipid oxidation process, malondialdehyde (MDA). Amount of MDA increases under the influence of ferrous sulfate (FeSO4), this moment was used as a model for the activated oxidation process. Sequence of analysis: 0.1 ml of test sample, 1 μmol of ferrous sulfate solution was added to 0.3 ml of blood serum and incubated at 37° C. for 15 min. Then 3 ml of 3% orthophosphoric acid and 1 ml of 0.6% thiobaric acid were added to the incubation mixture. The mixture was placed on a boiling water bath for one hour. Then 4 ml of butanol was added. The obtained mixture was centrifuged for 10 minutes at 3000 rpm. In the obtained supernatant, the optical density (E) was determined on a spectrometer on a wavelength of 535 nm. MDA concentration (C) was determined by the formula C=E×84.5 μmol/L. The difference between the background concentration of MDA and iron activated was 100%, while the antioxidant activity of the samples was conditionally expressed in %.",
  "data": [
    {"smiles": "O=C(O)CN(CCN(CC(=O)O)CC(=O)O)CC(=O)O", "note": "[Ethylenediaminetetraacetate]", "values": [
      {"measurement": "Relative Antioxidant Activity in %", "value": 92, "unit": "%"}
    ]}
  ]
}
